# Measurements published in ChEMBL document CHEMBL1201862, “PubChem BioAssay data set” (2004).
# Activity calls are given as the source filed them.
# Experiments:
# [1] = fluconazole-exposed Candida albicans growth modulators – fluorescence, retest, confirmation (AID 2467); type: functional, cell-based
# [2] = target: T1, Serine/threonine-protein phosphatase (Candida dubliniensis (strain CD36 / CBS 7987 / NCPF 3949 / NRRLY-17841) (Yeast), UniProt B9W6M3); test: blockers of CaCl2-induced CDRE-lacZ signaling – S. cerevisiae, luminescence, secondary, dose response (AID 2388); type: functional, cell-based;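 further: yeast reporter cells carrying a calcineurin-responsive lacZ construct stimulated with calcium chloride; luminescent beta-galactosidase reporter signal in whole cells rather than isolated phosphatase activity; potency for inhibition where a drop in reporter signal means calcineurin blockade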
# T1 sequence (B9W6M3 whole entry): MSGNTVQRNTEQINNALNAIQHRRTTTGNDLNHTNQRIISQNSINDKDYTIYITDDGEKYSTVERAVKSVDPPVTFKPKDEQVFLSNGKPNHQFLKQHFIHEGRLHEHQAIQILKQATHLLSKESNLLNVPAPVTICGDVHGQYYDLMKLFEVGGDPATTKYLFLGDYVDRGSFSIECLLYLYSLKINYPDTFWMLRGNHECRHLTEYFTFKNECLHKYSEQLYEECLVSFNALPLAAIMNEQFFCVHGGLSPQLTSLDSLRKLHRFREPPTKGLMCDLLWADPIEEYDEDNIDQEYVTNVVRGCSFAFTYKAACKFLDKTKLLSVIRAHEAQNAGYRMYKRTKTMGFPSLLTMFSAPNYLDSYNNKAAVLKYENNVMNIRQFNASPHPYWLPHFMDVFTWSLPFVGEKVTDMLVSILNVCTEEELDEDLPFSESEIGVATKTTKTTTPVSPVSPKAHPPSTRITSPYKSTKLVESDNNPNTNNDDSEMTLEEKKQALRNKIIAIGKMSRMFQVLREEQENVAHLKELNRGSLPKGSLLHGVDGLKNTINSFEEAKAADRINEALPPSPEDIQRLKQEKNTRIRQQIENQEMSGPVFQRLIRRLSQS
# [3] = target: ATP-dependent molecular chaperone HSP82 (Candida albicans (strain WO-1) (Yeast), UniProt C4YTQ8); test: steroid-induced GRE reporter decrease in yeast – S. cerevisiae, luminescence, Hsp90 inhibitor project, dose response (AID 2400); type: functional, cell-based;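 further: beta-galactosidase luminescence from glucocorticoid response element reporter as proxy for Hsp90 function; inhibitor potency where signal loss means Hsp90 inhibition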
# [4] = target: T1, Serine/threonine-protein phosphatase; test: Fluorescence Cell-Based Secondary Assay to Identify Inhibitors of Calcineurin. [Related pubchem assays (depositor defined):AID1979, AID2007]; type: functional
# [5] = NIH-3T3 fibroblast cytotoxicity, dose response, cytotoxicity control, cell-based, fluorescence, Alamar Blue, secondary assay (AID 2327); type: functional;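 further: NIH-3T3 mouse fibroblasts cultured with fluconazole at 8 µg/mL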
# cells [6] = type: functional, cell-based
# [7] = target: T2, Microphthalmia-associated transcription factor (Homo sapiens, UniProt O75030); test: reducers of TRPM1 reporter luminescence, concentration series – cell-based, SK-MEL-5, cherry-picked, set 3, MITF inhibitor project, dose response (AID 493073); type: functional;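 further: SK-MEL-5 melanoma cells with luciferase driven by the MITF target TRPM1 promoter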
# T2 sequence (O75030 whole entry): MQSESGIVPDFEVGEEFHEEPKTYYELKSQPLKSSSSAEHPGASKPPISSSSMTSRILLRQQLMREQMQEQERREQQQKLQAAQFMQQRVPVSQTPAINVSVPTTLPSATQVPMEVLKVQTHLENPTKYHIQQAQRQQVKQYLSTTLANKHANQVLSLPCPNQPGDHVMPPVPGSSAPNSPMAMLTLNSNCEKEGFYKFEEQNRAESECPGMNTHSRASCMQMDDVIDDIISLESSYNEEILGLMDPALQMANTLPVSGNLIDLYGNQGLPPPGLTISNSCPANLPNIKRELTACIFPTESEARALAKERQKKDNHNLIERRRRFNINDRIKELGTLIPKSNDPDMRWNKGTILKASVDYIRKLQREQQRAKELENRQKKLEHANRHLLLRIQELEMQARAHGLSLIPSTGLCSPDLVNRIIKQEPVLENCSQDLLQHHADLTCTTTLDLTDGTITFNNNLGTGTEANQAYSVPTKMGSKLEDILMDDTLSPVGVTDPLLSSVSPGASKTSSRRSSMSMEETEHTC
# INS1 = test: INS-1E survival protection against cytokine death – cell-based, luminescence, retest, dose response (AID 449756); type: functional; conditions: Rattus norvegicus;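 further: cell death triggered by IL-1 beta plus TNF-alpha plus IFN-gamma mixture; protective hits raise ATP signal compared with cytokine alone wells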
# A-375 = test: proliferation inhibition in MITF-low A375 cells – cell-based, cherry-pick samples, set 2, counter-screen for MITF modulator project, dose response (AID 540335); type: functional; conditions: Homo sapiens
# cells [8] = type: functional, cell-based; remark: listed apart in the source
# [9] = target: Beta-2 adrenergic receptor (Homo sapiens, UniProt P07550); test: ADRB2 activation measured by internalization – cell-based, FAP fluorogen, flow cytometry, cherry pick 1, dose response (AID 588763); type: functional
# Vero [10] = test: cells; type: functional, cell-based; conditions: Chlorocebus sabaeus
# [11] = MIN6 cell viability loss – mouse insulinoma, cytotoxicity control, dose response (AID 2122); type: functional;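 further: confirmatory high-throughput counterscreen run to flag cytotoxic compounds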
# Vero [12] = test: cells; type: functional; conditions: Chlorocebus sabaeus
# [13] = decrease of insulin promoter-GFP reporter – imaging, high-content screening, mouse beta cells (AID 1628); type: functional; conditions: MIN6
# [14] = target: Luciferin 4-monooxygenase (Photinus pyralis, UniProt P08659); test: inhibition of purified Photinus pyralis luciferase – biochemical, luminescence, dose response (AID 1891)
# BJ [15] = test: cells; type: functional, cell-based; conditions: Homo sapiens
# BJ [16] = test: BJ-TERT-LT-ST fibroblast viability loss – cell-based, RAS-independent, luminescence, dose response (AID 1935); type: functional; conditions: Homo sapiens;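 further: BJ fibroblasts immortalized with TERT plus LT and ST oncogenes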
# BJ [17] = test: BJ-TERT fibroblast viability loss – cell-based, RAS-independent, luminescence, dose response (AID 1933); type: functional; conditions: Homo sapiens
# [18] = DRD fibroblast viability loss – cell-based, non-viral oncogenic, luminescence, dose response (AID 1934); type: functional; conditions: Homo sapiens
# [19] = Luminescence Cell-Based Dose Confirmation HTS to Identify Inhibitors of Platelet Dense Granule Release. [Related pubchem assays: 1663 (Primary HTS), 1678 (Summary of Project)]; type: functional
# [20] = HEK-293T viability loss after treatment – luminescence, T-cell screen hits, cytotoxicity control for TCR NF-kB inhibitor project, dose response (AID 489026); type: functional, cell-based;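 further: cells exposed to compound about 14 hours before the viability readout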
# [21] = target: T3, Dual specificity protein phosphatase 6 (Rattus norvegicus, UniProt Q64346); type: functional
# T3 sequence (Q64346 whole entry): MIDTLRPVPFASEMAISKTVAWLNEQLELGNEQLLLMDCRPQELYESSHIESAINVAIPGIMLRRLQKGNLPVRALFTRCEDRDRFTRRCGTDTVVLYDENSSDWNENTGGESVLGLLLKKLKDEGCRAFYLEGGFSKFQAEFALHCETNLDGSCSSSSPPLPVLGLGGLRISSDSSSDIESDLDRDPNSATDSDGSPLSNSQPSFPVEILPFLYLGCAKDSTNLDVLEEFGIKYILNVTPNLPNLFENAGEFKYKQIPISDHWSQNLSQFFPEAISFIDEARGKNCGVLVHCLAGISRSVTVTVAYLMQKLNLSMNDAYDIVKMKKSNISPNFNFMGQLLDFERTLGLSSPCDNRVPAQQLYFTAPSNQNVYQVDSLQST
# [22] = target: Glyceraldehyde-3-phosphate dehydrogenase (Homo sapiens, UniProt P04406)
# [23] = target: T3, Dual specificity protein phosphatase 6
# [24] = target: T4, Tyrosine-protein phosphatase non-receptor type 7 (Homo sapiens, UniProt P35236); type: functional
# T4 sequence (P35236 whole entry): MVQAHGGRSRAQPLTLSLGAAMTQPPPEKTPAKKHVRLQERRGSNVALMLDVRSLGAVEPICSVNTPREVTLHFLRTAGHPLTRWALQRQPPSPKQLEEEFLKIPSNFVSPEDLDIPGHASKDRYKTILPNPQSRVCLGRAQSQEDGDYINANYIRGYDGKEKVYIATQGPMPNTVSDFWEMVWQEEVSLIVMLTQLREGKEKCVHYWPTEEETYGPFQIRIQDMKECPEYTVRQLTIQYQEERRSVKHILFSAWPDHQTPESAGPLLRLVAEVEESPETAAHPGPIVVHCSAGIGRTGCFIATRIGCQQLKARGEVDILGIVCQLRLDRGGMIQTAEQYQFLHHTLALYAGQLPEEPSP
# HEK293 [25] = test: HEK293T cell viability loss, resazurin readout – resazurin fluorescence, cytotoxicity control for NF-kB activator project, SAR follow-up (AID 493251); type: functional, cell-based; conditions: Homo sapiens
# Jurkat = test: SAR Analysis of small molecule inhibitors of T-cell specific antigen receptor-induced NF-kB activation in a Jurkat cell line using a luminescence assay - Set 2. [Related pubchem assays (depositor defined):AID435003, AID435012, AID465]; type: functional, cell-based; conditions: Homo sapiens
# HEK293 [26] = test: SAR Analysis of small molecule inhibitors of T-cell specific antigen receptor-induced NF-kB activation in a HEK-293T cell line using a luminescence assay - Set 2. [Related pubchem assays (depositor defined):AID435003, AID435012, AID489026]; type: functional, cell-based; conditions: Homo sapiens
# Vero [27] = test: viability of Vero cells under compound – cytotoxicity control for flavivirus capping enzyme inhibitors (AID 588742); type: functional; conditions: Chlorocebus sabaeus
# Albumin = Albumin (Bos taurus, UniProt P02769); test: Counterscreen for inhibitors of T-cell receptor (TCR)-CD3 interaction: Fluorescence-based biochemical high throughput dose response assay to identify inhibitors of T-cell receptor (TCR)-CD3 interaction using a TAMRA-labeled BSA probe.; type: functional
# [28] = bead-based luminescence quenchers, dual-tagged ARNT – biochemical, AlphaScreen, cherry-pick, artefact control for ARNT-TACC3 interaction inhibitor project, dose response (AID 651705); type: functional;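 further: AlphaScreen bead proximity signal that flags compounds interfering with the detection technology; potency reflects signal decrease which marks the compound as an assay artifact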
# [29] = target: Eukaryotic translation initiation factor 4E (Mus musculus, UniProt P63073); test: blockers of eIF4G binding by eIF4E – biochemical, TR-FRET, dose response (AID 855); type: functional;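 further: potency for disrupting eIF4E binding to eIF4GI seen as loss of FRET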
# Genome polyprotein = Genome polyprotein (dengue virus type 2, UniProt P29990); test: flavivirus cap methylation enzyme inhibition – biochemical, confirmation dose response, primary screen (AID 588689); type: functional
# SUMO-activating enzyme [30] = target: T5, SUMO-activating enzyme (Homo sapiens, UniProt Q9UBT2); test: blockers of SAE1/SAE2–UBC9 SUMO transfer – biochemical, HTRF, uHTS, primary screen (AID 2006); type: protein-complex assay
# SUMO-activating enzyme [31] = target: T5, SUMO-activating enzyme; test: blockers of UBC9-mediated SUMO conjugation – biochemical, AlphaScreen, SUMOylation inhibitor project, confirmation (AID 2018); type: functional
# T5 sequence (Q9UBE0 whole entry): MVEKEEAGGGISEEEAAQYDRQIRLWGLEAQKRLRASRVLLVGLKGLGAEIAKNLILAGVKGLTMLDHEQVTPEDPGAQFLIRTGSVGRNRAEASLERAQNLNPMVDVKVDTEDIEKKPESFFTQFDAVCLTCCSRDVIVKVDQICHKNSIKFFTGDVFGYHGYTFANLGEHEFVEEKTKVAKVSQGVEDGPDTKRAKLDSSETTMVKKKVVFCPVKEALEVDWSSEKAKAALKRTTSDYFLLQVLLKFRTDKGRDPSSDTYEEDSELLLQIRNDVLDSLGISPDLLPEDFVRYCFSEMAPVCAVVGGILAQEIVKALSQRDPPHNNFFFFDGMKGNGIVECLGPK
# T5 sequence (Q9UBT2 whole entry): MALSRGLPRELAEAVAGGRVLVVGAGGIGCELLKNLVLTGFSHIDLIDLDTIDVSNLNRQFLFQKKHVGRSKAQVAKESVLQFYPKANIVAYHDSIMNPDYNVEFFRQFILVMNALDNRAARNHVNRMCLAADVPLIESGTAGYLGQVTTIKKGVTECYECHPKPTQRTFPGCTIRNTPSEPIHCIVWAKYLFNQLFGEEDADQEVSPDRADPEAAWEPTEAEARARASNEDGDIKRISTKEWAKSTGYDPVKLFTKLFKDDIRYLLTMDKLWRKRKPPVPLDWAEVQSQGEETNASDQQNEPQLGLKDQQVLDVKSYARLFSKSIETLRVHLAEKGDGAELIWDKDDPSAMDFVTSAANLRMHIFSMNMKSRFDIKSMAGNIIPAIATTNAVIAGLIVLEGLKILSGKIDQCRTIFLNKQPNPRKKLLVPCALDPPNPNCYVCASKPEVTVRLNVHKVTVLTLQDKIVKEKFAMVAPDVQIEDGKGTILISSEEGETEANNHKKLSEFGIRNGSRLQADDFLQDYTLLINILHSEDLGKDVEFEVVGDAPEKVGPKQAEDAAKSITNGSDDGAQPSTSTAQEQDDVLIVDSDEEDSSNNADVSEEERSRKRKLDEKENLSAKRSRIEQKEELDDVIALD
# Sequence of Glyceraldehyde-3-phosphate dehydrogenase (P04406 whole entry): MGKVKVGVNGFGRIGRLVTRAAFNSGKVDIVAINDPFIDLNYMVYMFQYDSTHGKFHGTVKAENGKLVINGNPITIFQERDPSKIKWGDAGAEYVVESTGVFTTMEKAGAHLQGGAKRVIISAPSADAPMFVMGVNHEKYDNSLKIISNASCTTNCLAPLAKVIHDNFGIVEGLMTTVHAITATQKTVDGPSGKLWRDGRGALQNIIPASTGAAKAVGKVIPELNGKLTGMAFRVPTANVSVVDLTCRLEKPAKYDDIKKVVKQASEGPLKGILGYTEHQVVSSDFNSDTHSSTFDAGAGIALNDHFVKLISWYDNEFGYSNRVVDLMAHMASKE
# Sequence of ATP-dependent molecular chaperone HSP82 (C4YTQ8 whole entry): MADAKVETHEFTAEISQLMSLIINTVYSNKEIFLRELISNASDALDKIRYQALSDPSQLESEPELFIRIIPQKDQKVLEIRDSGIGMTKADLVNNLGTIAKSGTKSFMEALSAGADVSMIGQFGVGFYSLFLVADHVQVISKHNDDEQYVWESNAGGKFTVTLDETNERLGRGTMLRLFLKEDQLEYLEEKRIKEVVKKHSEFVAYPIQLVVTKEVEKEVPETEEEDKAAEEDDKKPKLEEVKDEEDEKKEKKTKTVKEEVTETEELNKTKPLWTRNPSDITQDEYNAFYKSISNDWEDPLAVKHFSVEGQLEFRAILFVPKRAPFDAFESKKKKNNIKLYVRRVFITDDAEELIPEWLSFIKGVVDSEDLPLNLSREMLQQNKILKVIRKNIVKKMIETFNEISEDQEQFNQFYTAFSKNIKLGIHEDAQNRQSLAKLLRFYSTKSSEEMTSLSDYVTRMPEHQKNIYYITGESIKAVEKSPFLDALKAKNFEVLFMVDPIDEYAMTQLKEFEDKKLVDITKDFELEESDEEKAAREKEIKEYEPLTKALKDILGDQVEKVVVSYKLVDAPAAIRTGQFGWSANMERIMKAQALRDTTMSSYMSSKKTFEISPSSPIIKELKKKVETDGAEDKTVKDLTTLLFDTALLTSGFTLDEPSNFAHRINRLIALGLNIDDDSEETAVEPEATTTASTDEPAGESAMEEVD
# Sequence of Albumin (P02769 whole entry): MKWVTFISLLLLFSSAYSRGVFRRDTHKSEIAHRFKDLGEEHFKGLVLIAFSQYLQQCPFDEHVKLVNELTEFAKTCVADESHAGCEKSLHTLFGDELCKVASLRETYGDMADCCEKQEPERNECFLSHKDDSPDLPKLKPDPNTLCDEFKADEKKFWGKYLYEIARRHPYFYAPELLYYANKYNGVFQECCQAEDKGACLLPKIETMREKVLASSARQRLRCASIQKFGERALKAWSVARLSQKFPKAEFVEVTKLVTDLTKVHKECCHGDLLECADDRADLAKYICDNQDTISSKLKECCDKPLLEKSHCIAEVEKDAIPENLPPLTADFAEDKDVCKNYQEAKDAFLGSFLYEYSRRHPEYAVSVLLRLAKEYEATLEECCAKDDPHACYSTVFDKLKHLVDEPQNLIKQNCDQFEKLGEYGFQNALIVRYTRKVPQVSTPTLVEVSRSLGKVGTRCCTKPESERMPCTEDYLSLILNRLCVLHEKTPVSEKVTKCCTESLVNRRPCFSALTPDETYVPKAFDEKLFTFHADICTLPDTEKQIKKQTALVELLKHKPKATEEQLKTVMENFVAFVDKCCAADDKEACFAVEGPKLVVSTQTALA
# Sequence of Luciferin 4-monooxygenase (P08659 whole entry): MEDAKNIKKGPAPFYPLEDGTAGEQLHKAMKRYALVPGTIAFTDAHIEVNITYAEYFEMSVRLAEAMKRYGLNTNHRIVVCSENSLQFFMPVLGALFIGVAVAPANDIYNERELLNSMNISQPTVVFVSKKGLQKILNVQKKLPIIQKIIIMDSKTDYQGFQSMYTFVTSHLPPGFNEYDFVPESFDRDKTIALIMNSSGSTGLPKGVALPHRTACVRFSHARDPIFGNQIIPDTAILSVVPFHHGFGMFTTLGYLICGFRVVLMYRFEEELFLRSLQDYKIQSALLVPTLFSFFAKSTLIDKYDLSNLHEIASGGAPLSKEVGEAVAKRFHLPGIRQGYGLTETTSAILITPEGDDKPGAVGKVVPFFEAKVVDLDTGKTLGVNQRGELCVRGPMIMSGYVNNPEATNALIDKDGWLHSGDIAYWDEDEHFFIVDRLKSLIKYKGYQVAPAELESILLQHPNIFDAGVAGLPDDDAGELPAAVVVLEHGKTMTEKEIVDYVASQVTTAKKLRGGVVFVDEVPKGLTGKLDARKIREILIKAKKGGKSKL
# Sequence of Genome polyprotein (P29990 2492-3391 limits assumed): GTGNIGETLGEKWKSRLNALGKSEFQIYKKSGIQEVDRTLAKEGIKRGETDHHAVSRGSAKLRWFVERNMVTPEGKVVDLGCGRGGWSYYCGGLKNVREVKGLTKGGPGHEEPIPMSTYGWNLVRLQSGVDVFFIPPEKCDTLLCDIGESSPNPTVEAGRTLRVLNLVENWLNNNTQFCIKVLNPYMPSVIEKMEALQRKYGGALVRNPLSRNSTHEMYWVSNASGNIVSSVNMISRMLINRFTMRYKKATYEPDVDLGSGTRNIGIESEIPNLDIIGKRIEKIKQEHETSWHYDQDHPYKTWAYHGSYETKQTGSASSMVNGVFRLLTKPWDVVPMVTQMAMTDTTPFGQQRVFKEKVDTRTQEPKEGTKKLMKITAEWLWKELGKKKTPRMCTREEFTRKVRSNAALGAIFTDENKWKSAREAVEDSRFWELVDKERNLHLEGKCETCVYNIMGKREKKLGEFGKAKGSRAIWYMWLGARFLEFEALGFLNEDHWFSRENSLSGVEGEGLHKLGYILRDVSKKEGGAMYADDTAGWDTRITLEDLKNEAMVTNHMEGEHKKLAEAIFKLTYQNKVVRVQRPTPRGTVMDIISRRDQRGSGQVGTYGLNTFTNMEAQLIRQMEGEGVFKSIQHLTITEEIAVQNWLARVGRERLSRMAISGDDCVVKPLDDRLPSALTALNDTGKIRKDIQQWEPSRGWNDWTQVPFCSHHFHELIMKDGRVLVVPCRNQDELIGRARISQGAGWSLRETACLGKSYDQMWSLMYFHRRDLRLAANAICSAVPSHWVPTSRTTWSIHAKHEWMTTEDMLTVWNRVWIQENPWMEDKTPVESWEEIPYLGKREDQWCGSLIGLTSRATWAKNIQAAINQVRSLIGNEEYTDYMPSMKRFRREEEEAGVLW
# Sequence of Eukaryotic translation initiation factor 4E (P63073 whole entry): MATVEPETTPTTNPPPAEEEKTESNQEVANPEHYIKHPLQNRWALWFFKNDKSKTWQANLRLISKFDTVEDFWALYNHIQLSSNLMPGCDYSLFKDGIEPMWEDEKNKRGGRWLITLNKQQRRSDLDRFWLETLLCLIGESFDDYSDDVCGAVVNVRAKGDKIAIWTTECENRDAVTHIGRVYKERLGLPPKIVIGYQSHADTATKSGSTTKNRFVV
# Sequence of Beta-2 adrenergic receptor (P07550 whole entry): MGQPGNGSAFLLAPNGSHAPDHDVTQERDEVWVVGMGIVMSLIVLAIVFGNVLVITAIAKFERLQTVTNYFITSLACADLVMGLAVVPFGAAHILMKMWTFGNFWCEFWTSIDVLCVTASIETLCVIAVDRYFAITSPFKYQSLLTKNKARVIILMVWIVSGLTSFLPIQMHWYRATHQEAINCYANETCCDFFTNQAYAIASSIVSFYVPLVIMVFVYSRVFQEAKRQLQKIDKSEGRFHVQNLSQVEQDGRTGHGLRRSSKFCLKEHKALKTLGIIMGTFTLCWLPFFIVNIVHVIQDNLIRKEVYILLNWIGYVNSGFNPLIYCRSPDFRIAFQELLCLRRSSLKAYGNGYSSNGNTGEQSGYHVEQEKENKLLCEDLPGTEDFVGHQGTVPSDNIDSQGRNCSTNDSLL
smiles,measurement,setting,value
Cc1ccc(Nc2nc(N)c([N+](=O)[O-])c(N3CCC(C)CC3)n2)cc1C,EC50,[1],0.207 µM (active)
same,EC50,[2],> 180 µM (inactive)
same,EC50,[3],4.42 µM (active)
same,EC50,[4],9.17 µM (active)
same,EC50,[5],> 150 µM (inactive)
O=C(N/N=C\c1cc(Cl)ccc1O)c1ccc(S(=O)(=O)N2CCCCC2)cc1,EC50,cells [6],265 µM (active)
same,AC50,[7],2.81 µM (active)
same,AC50,INS1,1.01 µM (active)
same,EC50,[1],0.381 µM (active)
same,AC50,A-375,46.3 µM (active)
same,EC50,cells [8],> 350 µM (not active)
same,EC50,[5],63.9 µM (inconclusive)
CCOCCCNC(=O)c1cc(-c2cccnc2)nc2ccc(S(=O)(=O)N3CCC(C)CC3)cc12,EC50,[9],6.09 µM (inactive)
Cc1ccc(-n2ncc3c(SCc4cccnc4)ncnc32)c(C)c1,IC50,Vero [10],21.8 µM (active)
same,IC50,[11],1.09 µM (active)
same,CC50,Vero [12],20.9 µM (active)
same,IC50,[13],1.77 µM (active)
Cc1ccc(S(=O)(=O)Cc2ccc(C(=O)N3CCN(c4cccc(C)c4C)CC3)o2)cc1,EC50,[14],57.2 µM (active)
same,EC50,BJ [15],18 µM (active)
same,EC50,BJ [16],4.2 µM (active)
same,EC50,BJ [17],8.13 µM (inconclusive)
same,EC50,[18],13.3 µM (inconclusive)
same,EC50,[19],> 112 µM (not active)
same,IC50,[20],> 80 µM (inactive)
CCn1c(=O)n(C)c(=O)n([C@@H](Cc2ccccc2)C(N)=O)c1=O,IC50,[21],> 100 µM (inactive)
same,IC50,[22],> 100 µM (not active)
same,IC50,[23],> 100 µM (inactive)
same,IC50,[24],> 100 µM (not active)
CC(C)CC(=O)NC(c1ccccc1)c1ccc2cccnc2c1O (stereo not drawn),IC50,HEK293 [25],10.4 µM (active)
same,IC50,Jurkat,4.18 µM (active)
same,IC50,HEK293 [26],7.19 µM (active)
Cc1ccccc1C(=O)Nc1cccc(C(=O)N/N=C/c2cc(Cl)cc([N+](=O)[O-])c2O)c1,CC50,Vero [27],33 µM (active)
same,IC50,Albumin,> 94.1 µM (inactive)
same,AC50,[28],95.3 µM (active)
same,IC50,[29],50 µM (inactive)
same,AC50,INS1,7.14 µM (active)
same,IC50,Genome polyprotein,> 100 µM (active)
same,IC50,SUMO-activating enzyme [30],> 100 µM (inactive)
same,IC50,SUMO-activating enzyme [31],6.22 µM (active)
CCCn1c(=O)nc(NCc2ccccc2OC)[nH]c1=O,IC50,[21],> 100 µM (inactive)
same,IC50,[22],> 100 µM (not active)
same,IC50,[23],> 100 µM (inactive)
same,IC50,[24],> 100 µM (not active)
